# Source: patent US20240407363A1 (priority 2021, published 2024)
# “Also recorded” adds a separate entry of the source.
# What was measured:
# X. perforans GEV-485 [1] = assay: In vitro MIC and MBC determination in nutrient broth / on NA plates; assay type: cell-based; conditions: three trials
# Description: (§1) X. perforans strain GEV-485, a copper-resistant strain, was used in this study to evaluate the antibacterial activity of Hx. Working cultures of GEV-485 were retrieved from −80° C. storage vials containing bacterial suspensions in 30% glycerol (v/v). Bacterial cells were taken from the storage, streaked on nutrient agar (NA; Difco™ Sparks, MD) plates and incubated for 48 h at 28° C. and single colonies were picked and streaked on NA plates to ensure bacterial purity for further cultures. NA amended with copper (II) sulfate pentahydrate (CuSO4·5H2O) (Fisher Scientific-Hampton, NH) at 20 ppm, was used as copper tolerance selective agent. To prepare the bacterial inoculum, a single bacterial colony was streaked on NA and incubated for 24 h at 28° C. From those plates, loops of bacterial cells were collected and resuspended in SDW amended with 0.01 M MgSO4. The bacterial concentration was adjusted to ˜5.0×10^8 colony-forming units (CFU)/mL based on an optical density (OD) of 0.3 at 600 nm. The in vitro studies were conducted to determine the minimum inhibitory concentration (MIC), minimum bactericidal concentration (MBC), and the antibacterial activity at different time points.
# To determine MIC of Hx against X. perforans GEV-485, individual 96-well plates containing 100 μL of nutrient broth (NB) with varied copper and Hx concentrations were inoculated with 100 μL of the GEV-485 suspension at the concentration of 1.0×10^8 CFU/mL. The final chemical concentrations on the wells were 16, 32, 64, 128, 256, 512, 1024, 2048, 4096 and 8192 mg/L. Three wells with 100 µL of NB and 100 μL of the bacterial suspension were the controls. Solutions in all wells were thoroughly mixed by pipetting. The plate was, then, covered with a lid and incubated under stationary conditions at 28° C. for 24 h. The value of MIC for Hx and copper was determined as the minimum concentration (mg/L), at which the bacterial growth was inhibited (the solution was clear), among all tested concentrations of each chemical. After MIC was determined, an aliquot of 20 μL of the solution from the wells that gave a clear solution was plated on NA. […] The MBC was determined as the minimum concentration, at which >99.9% of the initial bacterial populations were killed and no visible growth of the bacterium was observed on the NA plates among all tested concentrations of antimicrobial agents. The experiment was repeated two more times, with three replications for each treatment.
# [2] = system: X. perforans strain GEV-485; assay: In vitro antibacterial activity at different time points (viable colony counts); assay type: cell-based
# Description: as §1
# For the antibacterial activity study of Hx at different time points, the bacterial suspension was prepared as described above. […] After incubation, total viable colonies for each tube were counted. […]
# X. perforans GEV-485 [3] = assay: Greenhouse in planta experiments, hexanoic acid soil drench, tomato bacterial spot ('Bonnie Best'); assay type: in vivo
# Description: Hexanoic acid (Hx) (>99%, Sigma Aldrich) was tested for its effect on the management of bacterial leaf spot of tomato. Stock solutions of Hx (1.0×10^4 mg/L) were prepared with sterile distilled water (SDW) and stored at 4° C. for further dilutions. Copper treatment suspensions were prepared using Kocide® 3000 (DuPont, Wilmington DE) that contains 30% metallic Cu in the form of copper hydroxide [Cu(OH)2]. For greenhouse experiments, Kocide® 3000 at the rate of 2.1 g/L and Penncozeb 75DF (United Phosphorus Inc., King of Prussia, PA) at the rate of 1.2 g/L in SDW were prepared.
# The plants were then moved to a growth chamber with temperature at 28° C., 12 h photoperiod and 80% relative humidity. Fifty mL of Hx at the tested rates were applied to 3-4 weeks old plants by soil drench, 4 and 2 days prior to bacterial inoculation to prime the plants and induce basal plant defense. Kocide® 3000 and a mixture of Kocide® 3000+Penncozeb® were sprayed on the tomato plants until runoff and allowed to air dry for 4 h before bacterial inoculation. Three plants were sprayed with SDW only, as a negative control. […] Disease severity and phytotoxicity were evaluated every other day using the Horsfall-Barratt scale (Horsfall and Barratt, 1945), starting from 3 days up to 20 days post inoculation. […]
smiles,measurement,setting,value
"CCCCCC(=O)O [Hexanoic acid, hexanoic acid]",MIC,"X. perforans GEV-485 [1]; 28° C. for 24 h, copper-resistant strain, read-out: MIC",512 µg/mL
same,MBC,"X. perforans GEV-485 [1]; >99.9% of initial bacterial populations killed, no visible growth on NA, read-out: MBC",1020 µg/mL
same,colony growth after treatment,"[2]; at 256 mg/L or higher concentrations, after 4 hours of treatment",no colonies grew
same,bactericidal effect over time,[2]; higher concentrations of hexanoic acid,bactericidal effects within an hour
same,"bacterial spot disease (preliminary AUDPC, FIG. 9) compared to the control (UTC)","X. perforans GEV-485 [3]; 512 mg/L applied only once as soil drench 1, 3, and 7 days prior to the bacterial inoculation",did not appear to significantly reduce the bacterial spot disease
same,"disease severity (AUDPC, FIG. 10) compared to the control (UTC)","X. perforans GEV-485 [3]; different treatment concentrations, application two days prior to the bacterial inoculation, two-week rating period",significantly (P<0.05) lower disease severity; also recorded: statistically significant (p<0.05) lower disease severity
